Measurements taken from article PMC9501633, “Synthesis, Characterisation and Mechanism of Action of Anticancer 3-Fluoroazetidin-2-ones” (Pharmaceuticals, 2022).

How the values were obtained:
[1] = test system: purified bovine brain tubulin; experiment: Tubulin polymerisation assay (turbidimetric, 340 nm); format: biochemical; settings: paclitaxel 10 µM; 33 10 and 30 µM
Procedure: Tubulin polymerisation was investigated using a turbidimetric assay which determines the light scattering by microtubules (absorbance at 340 nm) that is proportional to the microtubule polymer concentration.
Tubulin polymerisation was monitored with purified bovine tubulin using the BK006 kit supplied by Cytoskeleton Inc. (Denver, CO, USA), carried out following the manufacturer’s instructions with the standard assay conditions. Purified (>99%) bovine brain tubulin (3 mg/mL) in a buffer containing PIPES (80 mM, pH 6.9), EGTA (0.5 mM), MgCl2 (2 mM), GTP (1 mM) and glycerol (10%) was incubated at 37 °C in the presence of either vehicle (2% (v/v) ddH2O) or paclitaxel (10 µM), CA-4 (10 μM) or 33 (10 and 30 µM). The effect on tubulin assembly was monitored turbidimetrically at 340 nm in a Spectramax 340 PC spectrophotometer (Molecular Devices, Sunnyvale, CA, USA), with the light scattered depending on the concentration of polymerised microtubules formed. The absorbance was measured at 30 s intervals for 60 min.
Figure 7 Effect of β-lactam compound 33 (10 and 30 µM) and paclitaxel (10 µM) on in vitro tubulin polymerisation. Purified bovine tubulin and GTP were mixed in a 96-well plate. Compounds were added and the reaction was started by warming the solution from 4 to 37 °C. Ethanol (1% v/v) was used as a vehicle control. The effect on tubulin assembly was monitored in a Spectramax 340PC spectrophotometer at 340 nm at 30 s intervals for 30 min at 37 °C. […] Each experiment was performed in duplicate.

[2] = test system: MCF-7 cells; experiment: Immunofluorescence confocal microscopy of the microtubule network; format: cell-based, human; settings: MCF-7, 16 h; 33 0.1, 0.5 and 1.0 μM; paclitaxel 1.0 μM; CA-4 0.01 μM
Procedure: The tubulin-targeting effect of compound 33 on the microtubule network of MCF-7 cells was further evaluated by immunofluorescence studies to identify the cellular effects that are relevant to its mechanism of action by inhibiting the polymerisation of tubulin. […] Treatment of MCF-7 cells with compound 33 (0.1, 0.5 and 1.0 μM) induced cell rounding and distinct abnormalities of the spindle formation as well as a loss of the structured tubulin that impacts the microtubule network structure in a dose-dependent manner.
Confocal microscopy was used to determine the effects of novel compound 33 and standard drugs on the MCF-7 cytoskeleton according to the protocols we previously described. For the immunofluorescence study, MCF-7 cells were seeded at 1 × 10^5 cells/mL using eight chamber glass slides (BD Biosciences). The cells were treated with vehicle control (1% ethanol (v/v)), CA-4 (0.01 μM), paclitaxel (1 µM) and 33 (0.1 µM, 0.5 µM and 1 µM) for 16 h. The cells were gently washed in PBS, fixed with 4% paraformaldehyde in PBS (20 min) and permeabilised in 0.5% Triton X-100. After further washes in PBS (containing 0.1% Tween (PBST)), cells were blocked with 5% bovine serum albumin which was diluted with PBST. Cells were incubated with mouse monoclonal anti-α-tubulin–FITC antibody (clone DM1A) (Sigma) (1:100) at 20 °C for 2 h and then washed in PBST and incubated with Alexa Fluor 488 dye (1:500) for 1 h at 20 °C. Cells were washed in PBST and mounted in Ultra Cruz Mounting Media (Santa Cruz Biotechnology, Santa Cruz, CA, USA) containing 4,6-diamino-2-phenolindol dihydrochloride (DAPI). The images were captured by Leica SP8 confocal microscopy with Leica Application Suite X software. Experiments were performed on three independent occasions and images were collected on the same day using identical parameters.
Figure 8 Compound 33 acts as depolymeriser of the microtubule network of MCF-7 breast cancer cells. Cells were treated with vehicle control ([…]), CA-4 (0.01 μM), paclitaxel (1 μM) or compound 33 (0.1, 0.5 and 1 μM) for 16 h. […]

[3] = test system: Hs578Ts(i)8 cells; experiment: AlamarBlue cell viability assay; format: cell-based
Procedure: (§1) The potent 3-fluoro-β-lactam compound 33 synthesised was also evaluated in the triple-negative MDA-MB-231 cell line which lacks expression of the estrogen and progesterone receptors (ER/PR) and the HER2 receptor. […]. Compound 32 was also evaluated in the triple-negative breast cancer cell line Hs578T and its isogenic subclone Hs578T(i)8 (Figure 4C). Hs578Ts(i)8 cells have 2.5-fold more migratory capacity and 3-fold more invasive capacity through the extracellular matrix than the parental cell line (Hs578T) and have 30% more CD44+/CD24-/low cells and in vivo proliferation. […]. The human breast carcinoma cell lines MCF-7 and MDA-MB-231 were purchased from the European Collection of Animal Cell Cultures (ECACC, Salisbury, UK). The SW-480 cells were a kind gift from Dr. Brian Flood, School of Biochemistry and Immunology, Trinity College Dublin. The human breast tumour cell line MCF-7 was cultured in Eagles minimum essential medium with 10% foetal bovine serum, 2 mM L-glutamine and 100 μg/mL penicillin/streptomycin. The medium was supplemented with 1% non-essential amino acids. The human breast tumour cell line MDA-MB-231 cells were maintained in Dulbecco’s modified Eagle’s medium (DMEM) with the addition of penicillin/streptomycin (100 µg/mL), 10% (v/v) foetal bovine serum and 2 mM L-glutamine (complete medium). Breast cancer cell line Hs578T and its isogenic subclone Hs578T(i)8 were a kind gift from Dr. Susan McDonnell, School of Chemical and Bioprocess Engineering, University College Dublin. SW-480 cells, triple-negative breast cancer Hs578T cells and invasive variant Hs578T8i cells were cultured in DMEM with GlutaMAX-I, with the same supplement in the absence of non-essential amino acids. HEK-293T cells (normal epithelial embryonic kidney cells) were cultured in DMEM with GlutaMAX-I in the absence of non-essential amino acids. The SW-480 cells were cultured in DMEM with GlutaMAX-I, with the same supplement in the absence of non-essential amino acids. All media contained 100 U/mL penicillin and 100 μg/mL streptomycin. The cells were seeded into pre-warmed complete medium (10 × 10^4 cells/mL) and maintained at a cell density of 2–19 × 10^5 cells /mL by the addition of fresh media. The cell number was monitored using a haemocytometer. Cells were maintained at 37 °C in 5% CO2 in a humidified incubator. […]
(§2) Figure 4 Antiproliferative activity of 3-fluoro β-lactams on MCF-7, MDA-MB-231, Hs578T and Hs578T isogenic subclone Hs578T(i)8 breast cancer cells and non-tumourigenic HEK-293T cells. […] Cell viability was expressed as a percentage of vehicle control (ethanol 1% (v/v))-treated cells. […] Cell viability was expressed as a percentage of vehicle control (ethanol 1% (v/v))-treated cells and was measured by AlamarBlue assay (average of three independent experiments). […]

[4] = test system: Hs578T cells; experiment: AlamarBlue cell viability assay; format: cell-based; settings: Homo sapiens, Hs-578T
Procedure: as §1, §2

[5] = test system: MCF-7 human breast cancer cells; experiment: AlamarBlue cell viability assay; format: cell-based; settings: Homo sapiens, MCF7, 72 h
Procedure: The antiproliferative potential of the synthesised 3-fluoro β-lactams 26–35 and 3,3-difluoro β-lactams 36–45 was evaluated in MCF-7 human breast cancer cells using the AlamarBlue assay, with CA-4 as reference compound (Figure 3). […] The results for the preliminary in vitro antiproliferative screen for 3-fluoro β-lactam compounds (26–29), which contain different substituents at the para position in the B ring, are presented in Figure 3A.
Cells were seeded at a density of 5 × 10^3 cells/well (MCF-7 and MDA-MB-231) and 1 × 10^4 cells/well (HEK-293T) in 96-well plates (200 μL per well). After 24 h, cells were then treated with medium alone, with vehicle (1% ethanol (v/v)) or with CA-4 or β-lactam compounds at 1 μM and 10 μM concentrations. […] Cell proliferation for MCF-7 cells was analysed with the AlamarBlue assay (Invitrogen Corp.) as previously described by us. After 72 h, AlamarBlue (10% (v/v)) was added to each well, and plates were incubated for 3–5 h at 37 °C in the dark. Fluorescence results were obtained with a 96-well fluorimeter with excitation at 530 nm and emission at 590 nm with results recorded as percentage viability relative to vehicle control (100%). Dose–response curves were obtained and IC50 values (concentration of drug resulting in 50% reduction in cell survival) were calculated using Prism (GraphPad Software, Inc., La Jolla, CA, USA).
Figure 3 Preliminary cell viability data for 3-fluoro and 3,3-difluoro β-lactam compounds. (A) 3-Fluoro β-lactam compounds containing different para-substituent ring B 26–29; 3-fluoro β-lactam compounds containing different meta-substituent ring B 30, 32–35; (B) 3-difluoro β-lactam compounds containing different para-substituent ring B 36–39; 3-difluoro β-lactam compounds containing different meta-substituent ring B 40, 42–45 in MCF-7 breast cancer cells. Cell proliferation of MCF-7 cells was determined with an AlamarBlue assay (seeding density […] for 96-well plates). Compound concentrations of either 10 μM or 1 μM for 72 h were used to treat the cells with control wells containing vehicle ethanol (1% v/v) and CA-4 (10 μM and 1 μM). The mean value for three experiments is shown with the ± S.E.M. for three independent experiments.

CC(=O)O[C@H]1C(=O)[C@@]2(C)[C@H]([C@H](OC(=O)c3ccccc3)[C@]3(O)C[C@H](OC(=O)[C@H](O)[C@@H](NC(=O)c4ccccc4)c4ccccc4)C(C)=C1C3(C)C)[C@]1(OC(C)=O)CO[C@@H]1C[C@@H]2O [Paclitaxel, reference compound]
effect on tubulin polymerisation [1]: stabilises the tubulin | effect on the microtubule network [2]: significant stabilisation of microtubules

COc1ccc(C2C(F)C(=O)N2c2cc(OC)c(OC)c(OC)c2)cc1O (stereo not drawn) [Compound 32, 3-Fluoro-4-(3-hydroxy-4-methoxyphenyl)-1-(3,4,5-trimethoxyphenyl)azetidin-2-one]
IC50 [3]: 0.065 µM | IC50 [4]: 0.033 µM | viability at 1 µM ([5]; MCF-7, 1 μM, 72 h, read-out: viable cells remaining): 30% | IC50 ([5]; MCF-7, 72 h): 0.075 µM
